Measurements from the NIST ThermoML archive (doi:10.1021/acs.jced.8b01135).
± gives the expanded uncertainty stated by the source.

Assay: xn = mol fraction of the nth substance listed
Settings: 102 kPa, Liquid; for mass density: Vibrating tube method; for viscosity: Concentric cylinders viscometry; for speed of sound: Frequency=3 MHz, Single path-length method

CCCCCCCCCCCCC1CCCCC1 [dodecylcyclohexane] + CCCCCCCCCCCC
Settings	mass density, 303.15 K [kg/m3]	mass density, 313.15 K [kg/m3]	mass density, 323.15 K [kg/m3]	mass density, 333.15 K [kg/m3]	speed of sound, 313.15 K [m/s]	speed of sound, 323.15 K [m/s]	speed of sound, 333.15 K [m/s]	viscosity, 313.15 K [mPa·s]	viscosity, 323.15 K [mPa·s]	viscosity, 333.15 K [mPa·s]
x1 = 0.1005	–	744.23 ± 0.71	737.02 ± 0.71	729.78 ± 0.71	1237.7 ± 0.8	1200.9 ± 0.8	1165.1 ± 0.8	1.29 ± 0.07	1.09 ± 0.02	0.945 ± 0.021
x1 = 0.2001	–	753.48 ± 0.71	746.35 ± 0.71	739.2 ± 0.71	1253.1 ± 0.8	1216.6 ± 0.8	1181 ± 0.8	1.46 ± 0.02	1.27 ± 0.02	1.09 ± 0.02
x1 = 0.298	–	761.93 ± 0.71	754.88 ± 0.71	747.81 ± 0.71	1267.5 ± 0.8	1231.1 ± 0.8	1195.8 ± 0.8	1.7 ± 0.02	1.43 ± 0.02	1.22 ± 0.02
x1 = 0.4031	–	770.4 ± 0.71	763.43 ± 0.71	756.44 ± 0.71	1281.9 ± 0.9	1245.9 ± 0.9	1210.7 ± 0.9	1.99 ± 0.02	1.66 ± 0.02	1.4 ± 0.02
x1 = 0.5001	–	777.69 ± 0.71	770.78 ± 0.71	763.86 ± 0.71	1294.6 ± 0.9	1258.7 ± 0.9	1223.8 ± 0.9	2.28 ± 0.02	1.89 ± 0.02	1.59 ± 0.02
x1 = 0.6005	791.62 ± 0.71	784.77 ± 0.71	777.93 ± 0.71	771.08 ± 0.71	1307 ± 0.9	1271.3 ± 0.9	1236.5 ± 0.9	2.63 ± 0.02	2.16 ± 0.02	1.8 ± 0.02
x1 = 0.7003	798.2 ± 0.71	791.4 ± 0.71	784.61 ± 0.71	777.81 ± 0.71	1319.2 ± 0.9	1283.6 ± 0.9	1248.9 ± 0.9	3.01 ± 0.03	2.45 ± 0.02	2.03 ± 0.02
x1 = 0.7997	804.35 ± 0.71	797.6 ± 0.71	790.86 ± 0.71	784.13 ± 0.71	1330.2 ± 0.9	1294.8 ± 0.9	1260.3 ± 0.9	3.45 ± 0.03	2.78 ± 0.02	2.29 ± 0.02
x1 = 0.8994	810.15 ± 0.71	803.45 ± 0.71	796.76 ± 0.71	790.08 ± 0.71	1340.7 ± 0.9	1305.4 ± 0.9	1271 ± 0.9	3.93 ± 0.03	3.14 ± 0.03	2.57 ± 0.02
x1 = 1	815.68 ± 0.71	809.03 ± 0.71	802.38 ± 0.71	795.75 ± 0.71	1350.5 ± 0.9	1315.4 ± 0.9	1281.4 ± 0.9	4.48 ± 0.03	3.55 ± 0.03	2.88 ± 0.03
